Tests used:
[1] = biological target: T1, Androgen receptor (Homo sapiens, UniProt P10275)
T1 sequence (P10275 whole entry): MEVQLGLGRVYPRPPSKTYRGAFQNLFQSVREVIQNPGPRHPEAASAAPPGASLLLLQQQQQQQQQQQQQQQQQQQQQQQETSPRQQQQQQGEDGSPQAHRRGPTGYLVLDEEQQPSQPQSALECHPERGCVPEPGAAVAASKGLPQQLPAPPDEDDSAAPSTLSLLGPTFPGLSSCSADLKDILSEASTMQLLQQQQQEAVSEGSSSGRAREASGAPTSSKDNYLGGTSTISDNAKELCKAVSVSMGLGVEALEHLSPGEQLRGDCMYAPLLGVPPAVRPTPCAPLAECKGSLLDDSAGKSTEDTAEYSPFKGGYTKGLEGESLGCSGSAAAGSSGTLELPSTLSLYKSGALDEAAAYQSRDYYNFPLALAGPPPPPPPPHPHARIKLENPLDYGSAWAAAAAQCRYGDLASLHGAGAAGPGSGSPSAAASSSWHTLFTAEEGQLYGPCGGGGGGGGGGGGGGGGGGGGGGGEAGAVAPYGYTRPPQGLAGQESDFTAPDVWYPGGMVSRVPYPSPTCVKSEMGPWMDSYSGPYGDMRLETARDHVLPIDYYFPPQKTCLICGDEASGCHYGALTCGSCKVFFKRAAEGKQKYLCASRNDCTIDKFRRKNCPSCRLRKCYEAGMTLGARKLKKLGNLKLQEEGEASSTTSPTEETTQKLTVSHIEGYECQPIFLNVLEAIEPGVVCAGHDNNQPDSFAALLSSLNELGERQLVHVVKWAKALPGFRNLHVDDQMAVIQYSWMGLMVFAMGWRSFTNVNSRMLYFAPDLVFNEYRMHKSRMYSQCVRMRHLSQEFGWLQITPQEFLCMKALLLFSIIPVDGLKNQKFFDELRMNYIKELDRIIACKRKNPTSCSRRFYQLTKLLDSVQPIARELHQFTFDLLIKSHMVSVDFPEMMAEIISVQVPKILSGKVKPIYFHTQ

[2] = biological target: Sodium-dependent noradrenaline transporter (Homo sapiens, UniProt P23975)
Chain of Sodium-dependent noradrenaline transporter (P23975 whole entry): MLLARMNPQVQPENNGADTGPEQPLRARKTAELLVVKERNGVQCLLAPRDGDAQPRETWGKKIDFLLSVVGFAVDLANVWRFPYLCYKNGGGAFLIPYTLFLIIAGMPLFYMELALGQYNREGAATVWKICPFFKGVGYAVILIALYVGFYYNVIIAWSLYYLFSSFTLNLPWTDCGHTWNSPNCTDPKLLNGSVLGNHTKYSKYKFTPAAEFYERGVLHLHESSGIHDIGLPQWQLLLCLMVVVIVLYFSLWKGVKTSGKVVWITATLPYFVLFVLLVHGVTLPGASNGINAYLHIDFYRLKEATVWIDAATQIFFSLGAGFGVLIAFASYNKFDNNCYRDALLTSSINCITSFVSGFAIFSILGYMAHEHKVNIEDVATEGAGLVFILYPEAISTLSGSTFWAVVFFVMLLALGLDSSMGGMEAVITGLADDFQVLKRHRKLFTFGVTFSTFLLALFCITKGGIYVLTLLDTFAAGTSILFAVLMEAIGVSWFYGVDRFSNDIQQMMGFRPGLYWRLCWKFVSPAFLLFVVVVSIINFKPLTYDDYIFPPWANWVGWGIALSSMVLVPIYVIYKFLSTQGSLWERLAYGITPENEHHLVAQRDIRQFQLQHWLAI

[3] = biological target: T2, Adenosine receptor A1 (Homo sapiens, UniProt P30542)
T2 sequence (P30542 whole entry): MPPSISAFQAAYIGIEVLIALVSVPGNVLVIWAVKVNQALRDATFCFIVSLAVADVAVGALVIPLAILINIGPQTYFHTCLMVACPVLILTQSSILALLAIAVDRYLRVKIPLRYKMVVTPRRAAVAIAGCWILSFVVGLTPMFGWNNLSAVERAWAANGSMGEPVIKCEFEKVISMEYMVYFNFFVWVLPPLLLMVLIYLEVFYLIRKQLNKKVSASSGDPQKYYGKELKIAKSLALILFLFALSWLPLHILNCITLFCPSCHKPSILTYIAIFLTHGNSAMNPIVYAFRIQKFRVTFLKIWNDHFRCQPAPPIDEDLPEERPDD

[4] = biological target: Gamma-aminobutyric acid receptor subunit alpha-1/alpha-2/beta-2/gamma-2 (Homo sapiens, UniProt P14867+P18507+P47869+P47870); format: protein-complex assay
Chain of Gamma-aminobutyric acid receptor subunit alpha-1/alpha-2/beta-2/gamma-2 (P14867 whole entry): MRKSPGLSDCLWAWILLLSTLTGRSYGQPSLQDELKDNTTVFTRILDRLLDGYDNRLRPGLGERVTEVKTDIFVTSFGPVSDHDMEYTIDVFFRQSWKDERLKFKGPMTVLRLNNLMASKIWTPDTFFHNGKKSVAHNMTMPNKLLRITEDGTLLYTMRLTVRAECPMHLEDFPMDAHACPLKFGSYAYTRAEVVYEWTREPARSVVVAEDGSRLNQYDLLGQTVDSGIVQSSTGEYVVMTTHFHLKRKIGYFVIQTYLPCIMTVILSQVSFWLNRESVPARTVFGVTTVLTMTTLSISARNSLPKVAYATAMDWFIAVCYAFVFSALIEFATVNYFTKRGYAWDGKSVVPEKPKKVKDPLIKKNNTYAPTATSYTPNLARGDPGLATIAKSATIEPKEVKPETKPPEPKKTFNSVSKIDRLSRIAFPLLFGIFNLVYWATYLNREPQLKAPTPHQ
Chain of Gamma-aminobutyric acid receptor subunit alpha-1/alpha-2/beta-2/gamma-2 (P47870 whole entry): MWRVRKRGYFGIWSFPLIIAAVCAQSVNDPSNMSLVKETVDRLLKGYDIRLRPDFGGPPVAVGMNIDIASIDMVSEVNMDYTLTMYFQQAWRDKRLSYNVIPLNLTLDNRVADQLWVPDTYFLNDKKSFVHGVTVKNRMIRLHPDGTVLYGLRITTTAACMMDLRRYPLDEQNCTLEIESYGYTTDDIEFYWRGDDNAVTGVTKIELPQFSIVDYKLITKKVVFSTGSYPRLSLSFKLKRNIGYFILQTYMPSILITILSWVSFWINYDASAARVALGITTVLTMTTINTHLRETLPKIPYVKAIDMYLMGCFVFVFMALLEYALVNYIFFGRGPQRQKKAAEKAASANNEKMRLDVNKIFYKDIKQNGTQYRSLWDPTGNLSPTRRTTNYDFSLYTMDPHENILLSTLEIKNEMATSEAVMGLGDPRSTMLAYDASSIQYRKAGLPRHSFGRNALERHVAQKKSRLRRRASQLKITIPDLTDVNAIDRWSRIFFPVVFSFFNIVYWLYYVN
Chain of Gamma-aminobutyric acid receptor subunit alpha-1/alpha-2/beta-2/gamma-2 (P18507 whole entry): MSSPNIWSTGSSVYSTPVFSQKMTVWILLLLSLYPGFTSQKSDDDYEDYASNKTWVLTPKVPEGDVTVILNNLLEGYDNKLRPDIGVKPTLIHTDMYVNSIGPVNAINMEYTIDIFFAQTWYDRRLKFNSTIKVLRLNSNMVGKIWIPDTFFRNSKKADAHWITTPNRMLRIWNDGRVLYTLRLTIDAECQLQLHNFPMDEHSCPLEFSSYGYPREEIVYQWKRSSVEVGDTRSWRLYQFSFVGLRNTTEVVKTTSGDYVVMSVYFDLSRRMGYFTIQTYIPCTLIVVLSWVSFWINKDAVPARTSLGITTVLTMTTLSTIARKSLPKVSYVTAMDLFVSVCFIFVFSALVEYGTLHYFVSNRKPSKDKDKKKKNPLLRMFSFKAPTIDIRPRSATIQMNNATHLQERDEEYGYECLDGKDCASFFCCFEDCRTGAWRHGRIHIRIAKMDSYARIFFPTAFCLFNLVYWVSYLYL
Chain of Gamma-aminobutyric acid receptor subunit alpha-1/alpha-2/beta-2/gamma-2 (P47869 whole entry): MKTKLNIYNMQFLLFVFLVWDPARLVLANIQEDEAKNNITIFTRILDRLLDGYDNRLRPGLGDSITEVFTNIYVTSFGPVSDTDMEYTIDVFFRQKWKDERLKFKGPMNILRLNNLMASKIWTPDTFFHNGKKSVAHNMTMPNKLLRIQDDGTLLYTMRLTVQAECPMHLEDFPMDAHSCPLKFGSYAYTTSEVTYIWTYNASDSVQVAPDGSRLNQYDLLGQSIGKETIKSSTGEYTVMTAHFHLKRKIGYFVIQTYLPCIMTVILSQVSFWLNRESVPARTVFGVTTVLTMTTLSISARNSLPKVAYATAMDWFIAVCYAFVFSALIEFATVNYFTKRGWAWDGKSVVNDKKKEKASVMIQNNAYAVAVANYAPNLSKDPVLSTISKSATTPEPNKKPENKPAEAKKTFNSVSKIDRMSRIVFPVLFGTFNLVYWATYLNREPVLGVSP

[5] = biological target: Beta-2 adrenergic receptor (Homo sapiens, UniProt P07550); format: functional, cell-based
Chain of Beta-2 adrenergic receptor (P07550 whole entry): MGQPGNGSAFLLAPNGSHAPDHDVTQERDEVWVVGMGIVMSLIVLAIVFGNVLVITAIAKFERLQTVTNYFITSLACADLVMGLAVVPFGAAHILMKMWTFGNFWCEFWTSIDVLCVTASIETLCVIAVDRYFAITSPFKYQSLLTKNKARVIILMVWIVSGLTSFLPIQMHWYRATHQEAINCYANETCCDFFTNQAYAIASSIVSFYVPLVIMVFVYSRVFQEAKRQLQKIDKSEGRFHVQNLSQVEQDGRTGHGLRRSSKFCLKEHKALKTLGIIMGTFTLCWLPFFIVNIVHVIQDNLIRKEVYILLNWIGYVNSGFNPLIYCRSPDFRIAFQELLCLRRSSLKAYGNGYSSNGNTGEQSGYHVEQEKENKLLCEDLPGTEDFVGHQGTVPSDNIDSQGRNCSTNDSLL

[6] = biological target: T3, Muscarinic acetylcholine receptor M2 (Homo sapiens, UniProt P08172); format: functional, cell-based
T3 sequence (P08172 whole entry): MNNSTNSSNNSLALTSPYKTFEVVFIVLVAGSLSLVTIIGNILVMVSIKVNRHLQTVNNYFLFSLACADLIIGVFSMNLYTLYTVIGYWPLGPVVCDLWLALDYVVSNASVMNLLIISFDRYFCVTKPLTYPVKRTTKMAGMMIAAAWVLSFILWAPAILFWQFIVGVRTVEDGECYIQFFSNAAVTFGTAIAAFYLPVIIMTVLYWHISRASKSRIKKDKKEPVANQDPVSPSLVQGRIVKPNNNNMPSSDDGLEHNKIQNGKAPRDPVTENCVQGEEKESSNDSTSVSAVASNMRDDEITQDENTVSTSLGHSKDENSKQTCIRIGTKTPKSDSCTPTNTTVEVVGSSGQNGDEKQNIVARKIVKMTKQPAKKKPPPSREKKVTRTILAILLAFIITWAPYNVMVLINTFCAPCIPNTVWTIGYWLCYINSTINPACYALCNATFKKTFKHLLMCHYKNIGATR

[7] = biological target: Motilin receptor (Homo sapiens, UniProt O43193)
Chain of Motilin receptor (O43193 whole entry): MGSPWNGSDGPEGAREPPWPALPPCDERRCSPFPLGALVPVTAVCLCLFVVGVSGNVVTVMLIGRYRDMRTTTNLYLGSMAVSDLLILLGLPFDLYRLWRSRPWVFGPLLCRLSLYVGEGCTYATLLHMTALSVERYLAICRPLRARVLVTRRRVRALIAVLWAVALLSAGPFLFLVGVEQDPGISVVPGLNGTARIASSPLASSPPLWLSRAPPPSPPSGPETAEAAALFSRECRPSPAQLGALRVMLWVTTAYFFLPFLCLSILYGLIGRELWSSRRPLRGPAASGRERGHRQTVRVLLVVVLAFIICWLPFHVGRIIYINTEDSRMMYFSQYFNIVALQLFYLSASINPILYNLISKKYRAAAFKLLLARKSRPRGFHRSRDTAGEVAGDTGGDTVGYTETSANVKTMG

[8] = biological target: T4, 5-hydroxytryptamine receptor 2A (Homo sapiens, UniProt P28223); format: functional, cell-based
T4 sequence (P28223 whole entry): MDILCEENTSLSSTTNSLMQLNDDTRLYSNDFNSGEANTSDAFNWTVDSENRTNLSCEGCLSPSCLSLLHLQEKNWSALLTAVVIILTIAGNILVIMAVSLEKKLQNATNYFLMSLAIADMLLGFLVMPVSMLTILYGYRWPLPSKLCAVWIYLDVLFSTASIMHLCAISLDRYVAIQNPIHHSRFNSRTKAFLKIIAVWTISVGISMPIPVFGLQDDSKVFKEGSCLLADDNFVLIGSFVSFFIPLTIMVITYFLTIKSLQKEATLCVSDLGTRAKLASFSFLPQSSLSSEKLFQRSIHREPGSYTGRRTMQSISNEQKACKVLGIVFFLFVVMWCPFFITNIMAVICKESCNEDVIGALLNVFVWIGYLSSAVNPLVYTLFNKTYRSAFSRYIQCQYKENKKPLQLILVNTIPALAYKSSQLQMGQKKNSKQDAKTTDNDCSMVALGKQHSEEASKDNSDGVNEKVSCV

[9] = biological target: T5, Muscarinic acetylcholine receptor M1 (Homo sapiens, UniProt P11229); format: functional
T5 sequence (P11229 whole entry): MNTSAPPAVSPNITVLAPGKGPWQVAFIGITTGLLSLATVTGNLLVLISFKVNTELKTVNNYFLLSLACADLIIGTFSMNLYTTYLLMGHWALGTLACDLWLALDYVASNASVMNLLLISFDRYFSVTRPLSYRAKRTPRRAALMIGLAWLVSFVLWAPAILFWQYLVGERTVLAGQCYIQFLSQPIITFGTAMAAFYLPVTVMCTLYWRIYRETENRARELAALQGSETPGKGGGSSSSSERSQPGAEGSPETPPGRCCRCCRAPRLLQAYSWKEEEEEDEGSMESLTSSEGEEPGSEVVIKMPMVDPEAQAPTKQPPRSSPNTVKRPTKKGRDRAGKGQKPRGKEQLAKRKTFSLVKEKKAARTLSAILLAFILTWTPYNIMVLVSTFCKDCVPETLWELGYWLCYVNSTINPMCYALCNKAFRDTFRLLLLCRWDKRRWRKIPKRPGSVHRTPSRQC

[10] = biological target: T4, 5-hydroxytryptamine receptor 2A; format: functional, cell-based; remark: listed apart in the source
[11] = biological target: Muscarinic acetylcholine receptor M3 (Homo sapiens, UniProt P20309)
Chain of Muscarinic acetylcholine receptor M3 (P20309 whole entry): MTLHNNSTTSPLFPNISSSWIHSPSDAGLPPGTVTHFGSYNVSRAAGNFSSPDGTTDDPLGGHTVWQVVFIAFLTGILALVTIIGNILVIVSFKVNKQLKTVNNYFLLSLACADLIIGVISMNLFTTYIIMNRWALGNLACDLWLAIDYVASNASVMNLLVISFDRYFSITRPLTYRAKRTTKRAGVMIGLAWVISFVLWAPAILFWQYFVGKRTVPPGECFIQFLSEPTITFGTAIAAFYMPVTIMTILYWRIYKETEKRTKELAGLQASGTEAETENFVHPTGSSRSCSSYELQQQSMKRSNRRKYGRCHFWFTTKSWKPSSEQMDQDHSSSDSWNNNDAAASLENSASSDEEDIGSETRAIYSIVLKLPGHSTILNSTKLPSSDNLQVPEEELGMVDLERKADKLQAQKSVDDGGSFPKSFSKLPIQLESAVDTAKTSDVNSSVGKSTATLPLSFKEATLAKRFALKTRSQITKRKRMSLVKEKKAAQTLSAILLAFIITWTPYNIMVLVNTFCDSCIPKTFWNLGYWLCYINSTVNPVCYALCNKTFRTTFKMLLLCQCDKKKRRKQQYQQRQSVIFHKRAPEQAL
Also: assay procedure not described here.

| Structure (SMILES) | AC50 [1] [µM] | AC50 [2] [µM] | AC50 [4] [µM] | also measured |
| --- | --- | --- | --- | --- |
| C[C@H](N[C@@H](CCc1ccccc1)C(=O)O)C(=O)N1Cc2ccccc2C[C@H]1C(=O)O | > 30 | > 30 | – | – |
| O=C(O)[C@@H]1C[C@@H](O)CN1 | > 30 | > 30 | – | – |
| CC1(C)S[C@@H]2[C@H](/N=C/N3CCCCCC3)C(=O)N2[C@H]1C(=O)O [AMDINOCILLIN] | – | > 30 | – | AC50 [3]: > 30 µM |
| CC(=O)[C@]1(N)Cc2c(O)c3c(c(O)c2[C@@H](O[C@H]2C[C@H](O)[C@H](O)CO2)C1)C(=O)c1ccccc1C3=O [AMRUBICIN] | > 30 | > 30 | – | – |
| NC(=O)[C@@H]1CC[C@@H]2CN1C(=O)N2OS(=O)(=O)O [AVIBACTAM] | > 30 | > 30 | > 30 | – |
| CC(=O)OC[C@H]1O[C@@H](n2ncc(=O)[nH]c2=O)[C@H](OC(C)=O)[C@@H]1OC(C)=O [AZARIBINE] | > 30 | > 30 | – | – |
| CC(O)(CS(=O)(=O)c1ccc(F)cc1)C(=O)Nc1ccc(C#N)c(C(F)(F)F)c1 (configuration not stated) [BICALUTAMIDE] | – | > 30 | – | AC50 [3]: > 30 µM; AC50 [5]: > 30 µM; AC50 [6]: > 10 µM; AC50 [7]: > 30 µM |
| CC(C)(C)NC(=O)N[C@H](C(=O)N1C[C@H]2[C@@H]([C@H]1C(=O)NC(CC1CCC1)C(=O)C(N)=O)C2(C)C)C(C)(C)C (some centres not stated) [BOCEPREVIR] | > 30 | > 30 | – | AC50 [3]: > 30 µM |
| NC[C@H]1CC[C@H](C(=O)Oc2ccc(CCC(=O)O)cc2)CC1 [CETRAXATE] | – | > 30 | – | AC50 [3]: > 30 µM; AC50 [5]: > 30 µM; AC50 [6]: > 30 µM |
| C=C1CC[C@H](O)C/C1=C/C=C1\CCC[C@]2(C)[C@@H]([C@H](C)CCCC(C)C)CC[C@@H]12 [CHOLECALCIFEROL] | – | > 10 | > 30 | – |
| C[C@H](CCC(=O)O)[C@H]1CC[C@H]2[C@@H]3[C@H](O)C[C@@H]4C[C@H](O)CC[C@]4(C)[C@H]3C[C@H](O)[C@]12C [CHOLIC ACID] | – | – | > 30 | – |
| Cc1ncc2c(c1O)COC2c1ccc(Cl)cc1 (configuration not stated) [CICLETANINE] | > 30 | > 30 | > 30 | – |
| N#Cc1ccc(Oc2ccc3c(c2)COB3O)cc1 [CRISABOROLE] | > 30 | > 30 | > 30 | – |
| CC(=O)O[C@]1(C(C)=O)CC[C@H]2[C@@H]3C=C(Cl)C4=CC(=O)[C@@H]5C[C@@H]5[C@]4(C)[C@H]3CC[C@@]21C [CYPROTERONE ACETATE] | – | > 30 | – | AC50 [3]: > 30 µM; AC50 [7]: > 10 µM |
| CC(=O)O[C@H]1Cc2ccccc2N(C(N)=O)c2ccccc21 [ESLICARBAZEPINE ACETATE] | > 30 | > 30 | > 30 | – |
| CN1CCCN(C(c2ccccc2)c2ccc(Cl)cc2)CC1 (configuration not stated) [HOMOCHLORCYCLIZINE] | > 30 | 12.9 | – | – |
| O=C(CCC/C=C\C[C@@H]1[C@@H](CC[C@@H](O)CCc2ccccc2)[C@H](O)C[C@@H]1O)OCCCCO[N+](=O)[O-] [LATANOPROSTENE BUNOD] | > 30 | > 30 | – | AC50 [3]: > 30 µM |
| Cc1oc(=O)oc1COC(=O)[C@@H]1N2C(=O)[C@@H](NC(=O)[C@H](N)c3ccccc3)[C@H]2SC1(C)C [LENAMPICILLIN] | > 30 | > 30 | – | – |

| Structure (SMILES) | AC50 [1] [µM] | AC50 [2] [µM] | AC50 [4] [µM] | also measured |
| --- | --- | --- | --- | --- |
| COc1ccc(OC)c(C(O)C(C)N)c1 (configuration not stated) [METHOXAMINE] | > 30 | > 30 | > 30 | – |
| CC1(CCN2CCCCC2)C(=O)CCc2ccccc21 (configuration not stated) [NEPINALONE] | > 30 | > 30 | > 30 | – |
| COC(=O)C[C@](O)(CCCC(C)(C)O)C(=O)O[C@@H]1C(OC)=C[C@]23CCCN2CCc2cc4c(cc2[C@H]13)OCO4 [OMACETAXINE MEPESUCCINATE] | > 30 | > 30 | – | AC50 [3]: > 30 µM |
| COc1cccc(C(=O)CCN[C@@H](C)[C@H](O)c2ccccc2)c1 [OXYFEDRINE] | > 30 | 2.65 | > 30 | – |
| CC[N+](C)(CC)CCOC(=O)C(O)(c1ccccc1)C1CCCCC1 (configuration not stated) [OXYPHENONIUM] | – | > 30 | > 30 | – |
| C[C@@H]1C[C@H]2[C@@H]3C[C@H](F)C4=CC(=O)C=C[C@]4(C)[C@H]3[C@@H](O)C[C@]2(C)[C@@]1(O)C(=O)CO [PARAMETHASONE] | 3.48 | > 30 | > 30 | – |
| NNCCc1ccccc1 [PHENELZINE] | – | 10.8 | > 30 | – |
| CCCn1cnc2c1c(=O)n(CCCCC(C)=O)c(=O)n2C [PROPENTOFYLLINE] | > 30 | > 30 | > 30 | – |
| COC(=O)[C@H]1[C@H]2C[C@@H]3c4[nH]c5cc(OC)ccc5c4CCN3C[C@H]2C[C@@H](OC(=O)c2cc(OC)c(OC)c(OC)c2)[C@@H]1OC [RESERPINE] | – | 13.6 | > 10 | AC50 [6]: > 10 µM; AC50 [7]: > 10 µM |
| Clc1ccc(C(Cn2ccnc2)OCc2csc3c(Cl)cccc23)c(Cl)c1 (configuration not stated) [SERTACONAZOLE] | 0.0201 | 3.3 | > 10 | – |
| CC(OCCN1CCCCCC1)(c1ccccc1)c1ccc(Cl)cc1 (configuration not stated) [SETASTINE] | > 30 | 5.82 | > 30 | – |
| O=C1OC(OC(=O)c2cccnc2Nc2cccc(C(F)(F)F)c2)c2ccccc21 (configuration not stated) [TALNIFLUMATE] | – | – | – | AC50 [8]: > 30 µM; AC50 [5]: > 30 µM; AC50 [9]: > 30 µM; AC50 [6]: > 30 µM; AC50 [10]: > 30 µM; AC50 [11]: > 30 µM; AC50 [7]: > 30 µM |
| C[C@]12C=CC(=O)C=C1CC[C@@H]1[C@@H]2CC[C@]2(C)OC(=O)CC[C@@H]12 [TESTOLACTONE] | – | – | – | AC50 [8]: > 30 µM; AC50 [5]: > 30 µM; AC50 [9]: > 10 µM; AC50 [6]: > 10 µM; AC50 [10]: > 30 µM; AC50 [11]: > 30 µM; AC50 [7]: > 10 µM |
| CCCSc1nc(N[C@@H]2C[C@H]2c2ccc(F)c(F)c2)c2nnn([C@@H]3C[C@H](OCCO)[C@@H](O)[C@H]3O)c2n1 [TICAGRELOR] | > 30 | 14.8 | – | – |
| c1ccc2c(SC3=NCCN3)c[nH]c2c1 [TINAZOLINE] | > 30 | 5.56 | > 30 | – |
| Cc1ccc(C(=O)C(C)CN2CCCCC2)cc1 (configuration not stated) [TOLPERISONE] | – | > 30 | > 30 | – |
| COc1ccc2c(C(=S)N(C)CC(=O)O)cccc2c1C(F)(F)F [TOLRESTAT] | – | > 30 | – | AC50 [3]: > 30 µM |

— ChEMBL document CHEMBL5291721, “A preclinical secondary pharmacology resource illuminates target-adverse drug reaction associations of marketed drugs” (Nat Commun, 2023)
